Measured values taken from US5143911A, “Antibiotic C-3 di-hydroxyphenyl substituted cephalosporin compounds, compositions and method of use thereof” (Bristol-Myers Squibb Company, priority 1990, dated 1992).
Converted amounts (≈) assume the structure as drawn.

Assays:
B. subtilis PCI 219 = conditions: Bacillus subtilis, PCI219, 18 h, pH 7.2
[1] = system: CETresistant E. coli(3), and Kl. pneumoniae(2); experiment: MIC, two-fold serial agar dilution, Mueller-Hinton agar (geometric mean, group Gn-Ib); assay type: cell-based; conditions: Escherichia coli, read-out: Geometric Mean of MIC, Gn-Ib
Experimental: (§1) For a primary evaluation of some representative compounds of this invention, minimum inhibitory concentrations (MIC's) were determined against 32 strains of test organisms by two-fold serial agar dilution method in Mueller-Hinton agar.
GnIb: CETresistant E. coli(3), and Kl. pneumoniae(2)

E. coli Juhl A15119 = conditions: Escherichia coli, JUHLA15119, 18 h, pH 7.2
B. fragilis A 22534 = experiment: In vitro activity against anaerobes (MIC), two-fold serial agar dilution, GAM agar; assay type: cell-based; conditions: Bacteroides fragilis, A22534, Gn, Beta-Lactamase(+)
B. fragilis A 22533 = experiment: as above; assay type: cell-based; conditions: Bacteroides fragilis, A22533, Gn, Beta-Lactamase(+)
P. acnes A 21933 = experiment: In vitro activity against anaerobes (MIC); assay type: cell-based; conditions: Cutibacterium acnes, A21933, Gp
M. morgani 1510 = conditions: 18 h, pH 7.2
B. fragilis A 22021 = experiment: In vitro activity against anaerobes (MIC), two-fold serial agar dilution, GAM agar; assay type: cell-based; conditions: Bacteroides fragilis, A22021, Gn, Beta-Lactamase(-)
P. vulgaris IPM-13 = assay type: cell-based; conditions: Proteus vulgaris, IPM13, pH 7.2, 32° C. 18 hr, 10^6 cells/ml
X. maltophilia GN 12873 = conditions: Stenotrophomonas maltophilia, GN12873, 18 h, pH 7.2
B. fragilis A 22693 = experiment: In vitro activity against anaerobes (MIC), two-fold serial agar dilution, GAM agar; assay type: cell-based; conditions: Bacteroides fragilis, A22693, Gn, Beta-Lactamase(-)
B. fragilis A 22695 = experiment: as above; assay type: cell-based; conditions: Bacteroides fragilis, A22695, Gn, Beta-Lactamase(+)
P. rettgeri IPM-14 = conditions: Providencia rettgeri, IPM14, 18 h, pH 7.2
P. mirabilis IFO-2849 = conditions: Proteus mirabilis, IFO2849, 18 h, pH 7.2
P. aeruginosa A20599 = assay type: cell-based; conditions: Pseudomonas aeruginosa, pH 7.2, 32° C. 18 hr, 10^6 cells/ml
P. aeruginosa 9843A = experiment: MIC against the infecting organism (Table 2); conditions: Pseudomonas aeruginosa
E. coli Juhl = experiment: MIC against the infecting organism (Table 2); conditions: Escherichia coli
P. cepacia A21213 = assay type: cell-based; conditions: Burkholderia cepacia, pH 7.2, 32° C. 18 hr, 10^6 cells/ml
B. fragilis CUH-108 = experiment: In vitro activity against anaerobes (MIC), two-fold serial agar dilution, GAM agar; assay type: cell-based; conditions: Bacteroides fragilis, CUH108, Gn, Beta-Lactamase(+), Clindamycin-resistant
Experimental: In vitro activity against anaerobic bacteria was determined on eight strains of B. fragilis by two-fold serial agar dilution method in GAM agar.

S. aureus Smith [2] = conditions: Staphylococcus aureus, in Mus musculus, im, read-out: PD50
E. faecium A24817 = assay type: cell-based; conditions: Enterococcus faecium, pH 7.2, 32° C. 18 hr, 10^6 cells/ml
[3] = system: Penicillin (PC)sensitive S. (5 strains); experiment: MIC, two-fold serial agar dilution, Mueller-Hinton agar (geometric mean, group Gp-Ia); assay type: cell-based, S. aureus; conditions: Staphylococcus aureus
Experimental: as §1
Gp-Ia: Penicillin (PC)sensitive S.

M. morgani 1510/9 = conditions: 18 h, pH 7.2
[4] = system: Cephalothin (CET)sensitive E. coli(2), Kl. pneumoniae(1) and Pr. mirabilis(2); experiment: MIC, two-fold serial agar dilution, Mueller-Hinton agar (geometric mean, group Gn-Ia); assay type: cell-based; conditions: 5 strains
Experimental: as §1
GnIa: Cephalothin (CET)sensitive E. coli(2)*, Kl. pneumoniae(1) and Pr.

E. cloacae IPM-12 = conditions: Enterobacter cloacae, IPM12, 18 h, pH 7.2
K. pneumoniae PCI 602 = conditions: Klebsiella pneumoniae, PCI602, 18 h, pH 7.2
S. aureus 4-1015 (MRSA) = conditions: Staphylococcus aureus, 18 h, pH 7.2
P. aeruginosa IPM-9 = conditions: Pseudomonas aeruginosa, IPM9, 18 h, pH 7.2
X. maltophilia No. 661 = conditions: Stenotrophomonas maltophilia, NO.661, 18 h, pH 7.2
C. terrigena IFO 12685 = conditions: 18 h, pH 7.2
C. freundii GN 7391 = conditions: Citrobacter freundii, GN7391, 18 h, pH 7.2
S. aureus Smith [5] = experiment: MIC against the infecting organism (Table 2); conditions: Staphylococcus aureus

With `CO/N=C(\C(=O)NC1C(=O)N2C(C(=O)O)=C(/C=C/COC(=O)c3ccc(O)c(O)c3)CS[C@H]12)c1csc(N)n1` (some centres unmarked) [Ia, 7-[(Z)-2-(2-Aminothiazol-4-yl)-2-methoxyiminoacetamido]-3-[(E)-3-(3,4-dihydroxybenzoyloxy)-1-propen-1-yl]-3-cephem-4-carboxylic acid] the MIC (B. subtilis PCI 219) was 0.2 µg/mL (≈ 0.347 µM), the MIC [1] was 0.029 µg/mL (≈ 0.0504 µM) and the MIC (E. coli Juhl A15119) was 0.05 µg/mL (≈ 0.0869 µM). For the same compound, the MIC (B. fragilis A 22534) was greater than 50 µg/mL, the MIC (B. fragilis A 22533) was greater than 50 µg/mL and the MIC (P. acnes A 21933) was 0.4 µg/mL (≈ 0.695 µM). For the same compound, the MIC (M. morgani 1510) was 3.1 µg/mL (≈ 5.39 µM), the MIC (B. fragilis A 22021) was 0.2 µg/mL (≈ 0.347 µM) and the MIC (P. vulgaris IPM-13) was greater than 100 µg/mL. The MIC (X. maltophilia GN 12873) was 50 µg/mL (≈ 86.9 µM), the MIC (B. fragilis A 22693) was 0.8 µg/mL (≈ 1.39 µM) and the MIC (B. fragilis A 22695) was 12.5 µg/mL (≈ 21.7 µM). The MIC (P. rettgeri IPM-14) was 0.05 µg/mL (≈ 0.0869 µM), the MIC (P. mirabilis IFO-2849) was 0.05 µg/mL (≈ 0.0869 µM) and the MIC (P. aeruginosa A20599) was 3.1 µg/mL (≈ 5.39 µM). The MIC (P. aeruginosa 9843A) was 3.1 µg/mL (≈ 5.39 µM), the MIC (E. coli Juhl) was 0.1 µg/mL (≈ 0.174 µM) and the MIC (P. cepacia A21213) was greater than 100 µg/mL. For the same compound, the MIC (B. fragilis CUH-108) was 25 µg/mL (≈ 43.4 µM), the ED50 (S. aureus Smith [2]) was 0.4 mg/kg and the MIC (E. faecium A24817) was greater than 100 µg/mL. For the same compound, the MIC [3] was 1.2 µg/mL (≈ 2.08 µM), the MIC (M. morgani 1510/9) was 0.05 µg/mL (≈ 0.0869 µM) and the MIC [4] was 0.017 µg/mL (≈ 0.0295 µM). It also gave an MIC (E. cloacae IPM-12) greater than 100 µg/mL, an MIC (K. pneumoniae PCI 602) of less than 0.0063 µg/mL and an MIC (S. aureus 4-1015 (MRSA)) of 12.5 µg/mL (≈ 21.7 µM). It also gave an MIC (P. aeruginosa IPM-9) of 6.3 µg/mL (≈ 10.9 µM), an MIC (X. maltophilia No. 661) of 12.5 µg/mL (≈ 21.7 µM) and an MIC (C. terrigena IFO 12685) of 0.8 µg/mL (≈ 1.39 µM). It also gave an MIC (C. freundii GN 7391) of 12.5 µg/mL (≈ 21.7 µM) and an MIC (S. aureus Smith [5]) of 1.6 µg/mL (≈ 2.78 µM).
